Assays:
histamine H1 -receptors = biological target: T1, histamine H1 -receptors (Cavia porcellus, UniProt P31389); experiment: in vitro histamine H1-antagonism on isolated guinea pig ileum; details: cumulative concentration/action curves (van Rossum), read-out: H1 -antagonism ileum -log KB (converted)
T1 construct: isolated guinea pig ileum (H1); from tissue; host or cells: isolated guinea pig ileum
From the text: (§1) The compounds of formula I according to the invention are distinguished by a novel overall pharmacological activity that has not been described hitherto. […] Suitable for differentiating the two types of action are, for example, in vitro tests on isolated spontaneously beating guinea pig right atrium (H2) and on isolated guinea pig ileum (H1) (Black, J. W.; Duncan, W. A. M.; Durant, G. J., Ganellin, C. R.; Parsons, M. E. (1972), "Definition and Antagonism of Histamine H2 -receptors", Nature 236, 385-390). The concentration/action curves for determining the pharmacological parameters (-log KB) are recorded using a cumulative technique according to van Rossum, J. M. (1963), "Cumulative Dose-Response Curves. II. Technique for the Making of Dose-Response Curves in Isolated Organs and the Evaluation of Drug Parameters", Arch. Int. Pharmacodyn. Ther. 143, 299-307.
(§2) (determined from isolated guinea pig ileum and atrium, […]

histamine H2 -receptors = biological target: T2, histamine H2 -receptors (Cavia porcellus, UniProt P47747); experiment: in vitro histamine H2-antagonism on isolated spontaneously beating guinea pig right atrium; details: cumulative concentration/action curves (van Rossum), read-out: H2 -antagonism atrium -log KB (converted)
T2 construct: isolated spontaneously beating guinea pig right atrium (H2); from tissue; host or cells: isolated spontaneously beating guinea pig right atrium
T2 sequence (P47747 whole entry): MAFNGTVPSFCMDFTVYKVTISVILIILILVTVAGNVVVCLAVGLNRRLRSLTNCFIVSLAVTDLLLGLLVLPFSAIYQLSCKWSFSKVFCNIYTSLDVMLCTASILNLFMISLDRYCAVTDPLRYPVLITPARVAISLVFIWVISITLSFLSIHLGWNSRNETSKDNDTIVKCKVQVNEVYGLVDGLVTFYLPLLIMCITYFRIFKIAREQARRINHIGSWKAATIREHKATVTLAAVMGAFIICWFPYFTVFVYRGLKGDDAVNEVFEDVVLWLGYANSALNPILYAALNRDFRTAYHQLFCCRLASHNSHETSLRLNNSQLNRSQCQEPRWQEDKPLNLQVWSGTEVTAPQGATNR
From the text: as §1, §2

T1 sequence (P31389 whole entry): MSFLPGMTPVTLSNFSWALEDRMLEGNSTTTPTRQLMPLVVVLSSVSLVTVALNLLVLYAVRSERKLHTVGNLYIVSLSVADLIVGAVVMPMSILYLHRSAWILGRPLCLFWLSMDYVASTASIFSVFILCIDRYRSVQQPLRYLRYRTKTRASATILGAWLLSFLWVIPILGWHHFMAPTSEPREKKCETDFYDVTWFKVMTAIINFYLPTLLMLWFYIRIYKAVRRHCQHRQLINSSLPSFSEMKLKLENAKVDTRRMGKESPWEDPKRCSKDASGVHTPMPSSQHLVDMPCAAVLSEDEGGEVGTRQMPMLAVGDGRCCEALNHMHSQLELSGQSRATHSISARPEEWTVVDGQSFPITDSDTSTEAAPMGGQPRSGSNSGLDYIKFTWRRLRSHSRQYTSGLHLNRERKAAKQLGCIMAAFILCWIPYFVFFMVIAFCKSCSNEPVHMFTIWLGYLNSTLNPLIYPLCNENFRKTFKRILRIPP

SMILES	Kb (histamine H1 -receptors) [nM]	Kb (histamine H2 -receptors) [nM]
CN(CCNC(=NCCCCOc1cccc(CN2CCCCC2)c1)NC#N)CCC(c1ccc(Cl)cc1)c1ccccn1 (stereo not shown) [Example 1, N-[2-[N-[3-(4-chlorophenyl)-3-(2-pyridyl)propyl]-N-methylamino]ethyl]-N'-cyano-N"-[4-[3-(piperidinomethyl)phenoxy]butyl]guanidine]	63.1	2290
CN(CCCCNC(=NCCCOc1cccc(CN2CCCCC2)c1)NC#N)CCC(c1ccccc1)c1ccccn1 (stereo not shown) [Example 9, N-cyano-N'-[4-[N-[3-phenyl-3-(2-pyridyl)propyl]-N-methylamino]butyl]-N"-[3-[3-(piperidinomethyl)phenoxy]propyl]guanidine]	11.7	501
CN(CCCCNC(=NCCSCc1csc(NC(=N)N)n1)NC#N)CCC(c1ccc(Cl)cc1)c1ccccn1 (stereo not shown) [Example 17, N-[4-[N-[3-(4-chlorophenyl)-3-(2-pyridyl)propyl]-N-methylamino]butyl]-N'-cyano-N"-[2-[[(2-guanidino-4-thiazolyl)methyl]thio]ethyl]guanidine]	5.01	166
CN(CCCCCCCNC(=NCCSCc1csc(NC(=N)N)n1)NC#N)CCC(c1ccc(Cl)cc1)c1ccccn1 (stereo not shown) [Example 20, N-[7-[N-[3-(4-chlorophenyl)-3-(2-pyridyl)propyl]-N-methylamino]heptyl]-N'-cyano-N"-[2-[[(2-guanidino-4-thiazolyl)methyl]thio]ethyl]guanidine]	4.17	30.9
CN(CCCCCCCNC(=C[N+](=O)[O-])NCCSCc1csc(NC(=N)N)n1)CCC(c1ccc(Cl)cc1)c1ccccn1 (stereo not shown) [Example 23, N-[7-[N-[3-(4-chlorophenyl)-3-(2-pyridyl)propyl]-N-methylamino]heptyl]-N'-[2-[[(2-guanidino-4-thiazolyl)methyl]thio]ethyl]-2-nitro-1,1-ethenediamine]	5.01	12.6
CN(CCCNC(=O)NCCCOc1cccc(CN2CCCCC2)c1)CCC(c1ccc(F)cc1)c1ccccn1 (stereo not shown) [Example 30, N-[3-[N-[3-(4-fluorophenyl)-3-(2-pyridyl)propyl]-N-methylamino]propyl]-N'-[3-[3-(piperidinomethyl)phenoxy]propyl]urea]	6.17	209
CN(CCCCCCCNC(=O)NCCSCc1csc(NC(=N)N)n1)CCC(c1ccc(Cl)cc1)c1ccccn1 (stereo not shown) [Example 36, N-[7-[N-[3-(4-chlorophenyl)-3-(2-pyridyl)propyl]-N-methylamino]heptyl]-N'-[2-[[(2-guanidino-4-thiazolyl)methyl]thio]ethyl]urea]	5.37	26.9
CN(CCCCCCNC(=O)NCCSCc1csc(NC(=N)N)n1)CCC(c1ccc(Cl)cc1)c1ccccn1 (stereo not shown) [Example 37, N-[6-[N-[3-(4-chlorophenyl)-3-(2-pyridyl)propyl]-N-methylamino]hexyl]-N'-[2-[[(2-guanidino-4-thiazolyl)methyl]thio]ethyl]urea]	7.41	123
CN(CCCCCCCNC(=S)NCCSCc1csc(NC(=N)N)n1)CCC(c1ccc(Cl)cc1)c1ccccn1 (stereo not shown) [Example 48, N-[7-[N-[3-(4-chlorophenyl)-3-(2-pyridyl)propyl]-N-methylamino]heptyl]-N'-[2-[[(2-guanidino-4-thiazolyl)methyl]thio]ethyl]thiourea]	20	60.3
Cc1[nH]cnc1CSCCNC(=O)NCCCN(C)CCC(c1ccc(Cl)cc1)c1ccccn1 (stereo not shown) [Example 50, N-[3-[N-[3-(4-chlorophenyl)-3-(2-pyridyl)propyl]-N-methylamino]propyl]-N'-[2-[[(5-methylimidazol-4-yl)methyl]thio]ethyl]urea]	7.08	6460
COc1ccc(CN(CCN(C)CCCCCCNC(=NCCCOc2cccc(CN3CCCCC3)c2)NC#N)c2ccccn2)cc1 [Example 55, N-cyano-N'-[6-[N-[2-[N-(4-methoxybenzyl)-N-(2-pyridyl)amino]ethyl]-N-methylamino]hexyl]-N"-[3-[3-(piperidinomethyl)phenoxy]propyl]guanidine]	7.24	372
CN(CCCCCCNC(=NCCCOc1cccc(CN2CCCCC2)c1)NC#N)CCN(Cc1ccc(F)cc1)c1ccccn1 [Example 60, N-cyano-N'-[6-[N-[2-[N-(4-fluorobenzyl)-N-(2-pyridyl)amino]ethyl]-N-methylamino]hexyl]-N"-[3-[3-(piperidinomethyl)phenoxy]propyl]guanidine]	8.71	389
CN(CCCCCCCNC(=O)NCCCOc1cccc(CN2CCCCC2)c1)CCN(Cc1ccc(F)cc1)c1ccccn1 [Example 72, N-[7-[N-[2-[N-(4-fluorobenzyl)-N-(2-pyridyl)amino]ethyl]-N-methylamino]heptyl]-N'-[3-[3-(piperidinomethyl)phenoxy]propyl]urea]	17.8	44.7
COc1ccc(CN(CCN(C)CCCCCCNC(=C[N+](=O)[O-])NCCCOc2cccc(CN3CCCCC3)c2)c2ccccn2)cc1 [Example 75, N-[6-[N-[2-[N-(4-methoxybenzyl)-N-(2-pyridyl)amino]ethyl]-N-methylamino]hexyl]-N'-[3-[3-(piperidinomethyl)phenoxy]propyl]-2-nitro-1,1-ethenediamine]	12.3	123

More lines, now with the values ahead:

Kb (histamine H1 -receptors) [nM]	Kb (histamine H2 -receptors) [nM]	SMILES
6.46	1480	CN(CCCNC(=NCCCOc1cccc(CN2CCCCC2)c1)NC#N)CCC(c1ccccc1)c1ccccn1 (stereo not shown) [Example 10, N-cyano-N'-[3-[N-[3-phenyl-3-(2-pyridyl)propyl]-N-methylamino]propyl]-N"-[3-[3-(piperidinomethyl)phenoxy]propyl]guanidine]
3.72	126	CN(CCCCCNC(=NCCSCc1csc(NC(=N)N)n1)NC#N)CCC(c1ccc(Cl)cc1)c1ccccn1 (stereo not shown) [Example 18, N-[5-[N-[3-(4-chlorophenyl)-3-(2-pyridyl)propyl]-N-methylamino]pentyl]-N'-cyano-N"-[2-[[(2-guanidino-4-thiazolyl)methyl]thio]ethyl]guanidine]
13.8	39.8	CN(CCCCCCCCNC(=O)NCCSCc1csc(NC(=N)N)n1)CCC(c1ccc(Cl)cc1)c1ccccn1 (stereo not shown) [Example 35, N-[8-[N-[3-(4-chlorophenyl)-3-(2-pyridyl)propyl]-N-methylamino]octyl]-N'-[2-[[(2-guanidino-4-thiazolyl)methyl]thio]ethyl]urea]
11.2	182	COc1ccc(CN(CCN(C)CCCCCCNC(=O)NCCCOc2cccc(CN3CCCCC3)c2)c2ccccn2)cc1 [Example 66, N-[6-[N-[2-[N-(4-methoxybenzyl)-N-(2-pyridyl)amino]ethyl]-N-methylamino]hexyl]-N'-[3-[3-(piperidinomethyl)phenoxy]propyl]urea]
9.55	135	CN(CCCCCNC(=O)NCCCOc1cccc(CN2CCCCC2)c1)CCN(Cc1ccc(F)cc1)c1ccccn1 [Example 70, N-[5-[N-[2-[N-(4-fluorobenzyl)-N-(2-pyridyl)amino]ethyl]-N-methylamino]-pentyl]-N'-[3-[3-(piperidinomethyl)phenoxy]propyl]urea]
2.45	245	COc1ccc(CN(CCN(C)CCCCCCN=C(NC#N)NCCSCc2csc(NC(=N)N)n2)c2ccccn2)cc1 [Example 79, N-cyano-N'-[2-[[(2-guanidino-4-thiazolyl)methyl]thio]ethyl]-N"-[6-[N-[2-[N-(4-methoxybenzyl)-N-(2-pyridyl)amino]ethyl]-N-methylamino]hexyl]-guanidine]
